Measurements reported in ChEMBL document CHEMBL1132096, “Structure-related enhancing activity of escins Ia, Ib, IIa and IIb on magnesium absorption in mice” (1999).

Assays:
Mus musculus [1] = assay: Increased Magnesium ion level in 0.5 M MgSO4 loaded ([…] p.o.) mice at a concentration of 25 mg/kg administered perorally; format: functional; conditions: route oral
Mus musculus [2] = assay: Serum Magnesium ion level in 0.5 M MgSO4 loaded ([…] p.o.) mice at a concentration of 25 mg/kg administered perorally; format: functional, organism-based; parameters: dose 25 mg/kg
Mus musculus [3] = assay: Serum Magnesium ion level in 0.5 M MgSO4 loaded ([…] p.o.) mice at a concentration of 12.5 mg/kg administered perorally; format: functional, organism-based; parameters: dose 12.5 mg/kg
Mus musculus [4] = assay: Serum Magnesium ion level in 0.5 M MgSO4 loaded ([…] p.o.) mice at a concentration of 5 mg/kg administered perorally; format: functional, organism-based; parameters: dose 5 mg/kg
Mus musculus [5] = assay: Serum Magnesium ion level in MgSO4 unloaded mice at a concentration of 25 mg/kg administered perorally; format: functional, organism-based; parameters: dose 25 mg/kg
Mus musculus [6] = assay: Increased Magnesium ion level in 0.5 M MgSO4 loaded ([…] p.o.) mice at a concentration of 5 mg/kg administered perorally; format: functional; conditions: route oral
Mus musculus [7] = assay: Increased Magnesium ion level in 0.5 M MgSO4 loaded ([…] p.o.) mice at a concentration of 12.5 mg/kg administered perorally; format: functional; conditions: route oral
Mus musculus [8] = assay: Serum Magnesium ion level in 0.5 M MgSO4 loaded ([…] p.o.) mice pretreatment with Indomethacin (10 mg/kg, s.c) at a concentration of 12.5 mg/kg administered perorally; format: functional, organism-based; parameters: dose 12.5 mg/kg
Mus musculus [9] = assay: Serum Magnesium ion level in 1.67 M MgSO4 loaded ([…] p.o.) mice at a concentration of 50 mg/kg administered perorally; format: functional, organism-based; parameters: dose 50 mg/kg
Mus musculus [10] = assay: Serum Magnesium ion level in 1.67 M MgSO4 loaded ([…] p.o.) mice pretreatment with STZ (100 mg/kg, i.v.) at a concentration of 50 mg/kg administered perorally; format: functional, organism-based; parameters: dose 50 mg/kg
Mus musculus [11] = assay: Increased Magnesium ion level in 0.5 M MgSO4 loaded ([…] p.o.) mice pretreatment with Insulin (1U/kg, s.c) at a concentration of 12.5 mg/kg administered perorally; format: functional; conditions: route oral
Mus musculus [12] = assay: Increased Magnesium ion level in 1.67 M MgSO4 loaded ([…] p.o.) mice pretreatment with STZ (100 mg/kg, i.v.) at a concentration of 50 mg/kg administered perorally; format: functional; conditions: route oral
Mus musculus [13] = assay: Serum Magnesium ion level in 0.5 M MgSO4 loaded ([…] p.o.) mice pretreatment with Insulin (1U/kg, s.c) at a concentration of 12.5 mg/kg administered perorally; format: functional, organism-based; parameters: dose 12.5 mg/kg
Mus musculus [14] = assay: Increased Magnesium ion level in 1.67 M MgSO4 loaded ([…] p.o.) mice at a concentration of 50 mg/kg administered perorally; format: functional; conditions: route oral
Mus musculus [15] = assay: Increased Magnesium ion level in 0.5 M MgSO4 loaded ([…]) mice pretreatment with Indomethacin (10 mg/kg, s.c) at a concentration of 12.5 mg/kg administered perorally; format: functional; conditions: route oral
Mus musculus [16] = assay: Serum Magnesium ion level in 0.5 M MgSO4 loaded ([…] p.o.) mice at a concentration of 25 mg/kg administered perorally.; format: functional, organism-based; parameters: dose 25 mg/kg

Structure (SMILES): CC1(C)CC2C3=CCC4[C@@]5(C)CC[C@H](O[C@@H]6OC(C(=O)O)C(O[C@@H]7OC(CO)C(O)[C@@H](O)[C@@H]7O)[C@@H](O)[C@@H]6O[C@@H]6OCC(O)[C@@H](O)[C@@H]6O)[C@](C)(CO)C5CC[C@@]4(C)[C@]3(C)C[C@@H](O)[C@@]2(CO)[C@@H](O)[C@@H]1O (stereo partly specified)
- Increase (Mus musculus [1]): 3%
- Serum Mg2+ level (Mus musculus [2]): 3.4

Structure (SMILES): C/C=C(\C)C(=O)O[C@H]1[C@H](OC(C)=O)[C@@]2(CO)C(CC1(C)C)C1=CCC3[C@@]4(C)CC[C@H](O[C@@H]5O[C@H](C(=O)O)[C@@H](O[C@@H]6O[C@H](CO)[C@@H](O)[C@H](O)[C@H]6O)[C@H](O)[C@H]5O[C@@H]5OC[C@@H](O)[C@H](O)[C@H]5O)[C@](C)(CO)C4CC[C@@]3(C)[C@]1(C)C[C@H]2O (stereo partly specified) [AESCIN]
- Serum Mg2+ level (Mus musculus [3]): 3.1
- Increase (Mus musculus [1]): 12.5%
- Serum Mg2+ level (Mus musculus [4]): 3
- Serum Mg2+ level (Mus musculus [2]): 3.6
- Serum Mg2+ level (Mus musculus [5]): 3.1
- Increase (Mus musculus [6]): -6.3%
- Increase (Mus musculus [7]): -3.1%

Structure (SMILES): C/C=C(/C)C(=O)O[C@H]1[C@H](OC(C)=O)[C@@]2(CO)C(CC1(C)C)C1=CCC3[C@@]4(C)CC[C@H](O[C@@H]5OC(C(=O)O)C(O[C@@H]6OC(CO)C(O)[C@@H](O)[C@@H]6O)[C@@H](O)[C@@H]5O[C@@H]5OC(CO)C(O)[C@@H](O)[C@@H]5O)[C@](C)(CO)C4CC[C@@]3(C)[C@]1(C)C[C@H]2O (stereo partly specified)
- Serum Mg2+ level (Mus musculus [8]): 4.3
- Serum Mg2+ level (Mus musculus [3]): 3.9
- Increase (Mus musculus [1]): 24.2%
- Serum Mg2+ level (Mus musculus [9]): 7.9
- Serum Mg2+ level (Mus musculus [10]): 6.3
- Serum Mg2+ level (Mus musculus [4]): 3.7
- Increase (Mus musculus [11]): 30.8%
- Increase (Mus musculus [12]): 26%
- Serum Mg2+ level (Mus musculus [2]): 4.1
- Serum Mg2+ level (Mus musculus [5]): 3.1
- Increase (Mus musculus [6]): 12.1%
- Increase (Mus musculus [7]): 18.2%
- Serum Mg2+ level (Mus musculus [13]): 5.1
- Increase (Mus musculus [14]): 38.6%
- Increase (Mus musculus [15]): 34.4%

Structure (SMILES): C/C=C(\C)C(=O)O[C@H]1[C@H](OC(C)=O)[C@@]2(CO)C(CC1(C)C)C1=CCC3[C@@]4(C)CC[C@H](O[C@@H]5OC(C(=O)O)C(O[C@@H]6OC(CO)C(O)[C@@H](O)[C@@H]6O)[C@@H](O)[C@@H]5O[C@@H]5OC(CO)C(O)[C@@H](O)[C@@H]5O)[C@](C)(CO)C4CC[C@@]3(C)[C@]1(C)C[C@H]2O (stereo partly specified)
- Serum Mg2+ level (Mus musculus [3]): 3.3
- Increase (Mus musculus [1]): 9.1%
- Serum Mg2+ level (Mus musculus [16]): 3.6
- Serum Mg2+ level (Mus musculus [4]): 3.6
- Serum Mg2+ level (Mus musculus [5]): 3.1
- Increase (Mus musculus [6]): 9.1%
- Increase (Mus musculus [7]): 0%
